Measurements taken from patent US7754875B1, “Halide-free glucosamine base-organic acid salt compositions” (JFC Technologies, LLC, priority 2004, dated 2010).

Key:
[1] = Stability of sample in open dish exposed to the air at ambient temperature (color change); type: physicochemical
Procedure: (§1) 17.9 g of halide-free glucosamine base was mixed with 150 cc of purified water in a reaction vessel. After a clear solution was obtained, 16 g of α-hydroxy octanoic acid were slowly added, with stirring, to the glucosamine base solution. It was noted that the reaction was slightly exothermic since the temperature rose to 35° C. The reaction mixture was filtered and the water was removed by freeze-drying at a pressure of about 200 milliTorre and a temperature of about −45° C. 33 g of an off-white crystalline powder were obtained. The product was placed in a capped bottle that was placed in the refrigerator. […] A sample of the product was placed in an open dish exposed to the air at ambient temperature.
Example 1 was repeated using 300 cc of purified water to which 16.5 g of polyethylene glycol homopolymer had been added. 49 g (97.2% yield) of the white salt product were obtained. A sample of this product was placed in an open dish exposed to the air at ambient temperature.
A sample of the Example 3 product was placed in a dish exposed to the air at ambient temperature. […] A sample of the Example 4 product was placed in a dish exposed to the air at ambient temperature.

[2] = Stability of product kept in capped bottle in the refrigerator (color); type: physicochemical; details: six months
Procedure: as §1

Row | color of sample after exposure to the air at ambient temperature ([1]; dish, 1 day) | SMILES | color of sample after exposure to the air at ambient temperature ([1]; open dish, 3 days) | color of product kept in the refrigerator [2]
1 | – | CCCCCCC(O)C(=O)O.NC1C(O)OC(CO)C(O)C1O (stereo not drawn) [Example 1] | developed a yellow color | remained off-white in color
2 | developed a yellow-orange color | N[C@H]1C(O)O[C@H](CO)[C@@H](O)[C@@H]1O.O=C(O)CC(O)(CC(=O)O)C(=O)O [Example 3] | – | –
